The text below walks through data of patent publication US9181262B2, “Crystalline forms of a dipeptidyl peptidase-IV inhibitors” (Merck Sharp & Dohme Corp, priority 2011, dated 2015).

≈ marks a conversion by molar mass, not a printed value.

Series [1] is described as follows: solubility in water. It is filed as physicochemical. To be noted: crystalline forms of Compound I (anhydrous free base).
Series [2] can be described thus: relative stability of crystalline forms (turnover experiments). To be noted: for relative phase stability of the crystalline form: relationship between polymorphs of Compound I. Type of series: physicochemical. The method, then: Crystalline Form II was produced by re-crystallization of Form I in isopropyl acetate and heptane 1:1 at room temperature. Form II was characterized using XRPD, ssNMR, DSC, TGA and IR. […] 17 hr, IPAc 60° C. for one day, H2O 60° C. over two weeks, three days, NMP-water 1-1 35° C. over three days.

Broadly, the solubility is the concentration that dissolves in the medium under given conditions. In turn, `CS(=O)(=O)n1cc2c(n1)CN([C@H]1CO[C@H](c3cc(F)ccc3F)[C@@H](N)C1)C2` [Compound I, (2R,3S,5R)-2-(2,5-Difluorophenyl)-5-[2-(methylsulfonyl)-2,6-dihydropyrrolo[3,4-c]pyrazol-5(4H)-yl]tetrahydro-2H-pyran-3-amine] gave a solubility in series [1] of approximately 2000 µg/mL (≈ 5.02 mM).
Take `CS(=O)(=O)n1cc2c(n1)CN([C@H]1CO[C@H](c3cc(F)ccc3F)[C@@H](N)C1)C2` [Form IV, (2R,3S,5R)-2-(2,5-Difluorophenyl)-5-[2-(methylsulfonyl)-2,6-dihydropyrrolo[3,4-c]pyrazol-5(4H)-yl]tetrahydro-2H-pyran-3-amine]: in series [2], the “relative phase stability of the crystalline form” value (from here on “relative phase stability”) was “metastable to Form I and II”.
As to `CS(=O)(=O)n1cc2c(n1)CN([C@H]1CO[C@H](c3cc(F)ccc3F)[C@@H](N)C1)C2` [Form III, (2R,3S,5R)-2-(2,5-Difluorophenyl)-5-[2-(methylsulfonyl)-2,6-dihydropyrrolo[3,4-c]pyrazol-5(4H)-yl]tetrahydro-2H-pyran-3-amine], the “relative phase stability” value in series [2] is “metastable to Form I and II”.
`CS(=O)(=O)n1cc2c(n1)CN([C@H]1CO[C@H](c3cc(F)ccc3F)[C@@H](N)C1)C2` [Form II, (2R,3S,5R)-2-(2,5-Difluorophenyl)-5-[2-(methylsulfonyl)-2,6-dihydropyrrolo[3,4-c]pyrazol-5(4H)-yl]tetrahydro-2H-pyran-3-amine]: in series [2] (turnover experiments with 50-50 seed: DCM-Heptane 25° C., IPAc 25° C. and 60° C., H2O 60° C., NMP-water 1-1 35° C.), the “conversion of Form II into Form I” value was “slow but observed in all turnover experiments”.
For the compound `CS(=O)(=O)n1cc2c(n1)CN([C@H]1CO[C@H](c3cc(F)ccc3F)[C@@H](N)C1)C2` [Form I, (2R,3S,5R)-2-(2,5-Difluorophenyl)-5-[2-(methylsulfonyl)-2,6-dihydropyrrolo[3,4-c]pyrazol-5(4H)-yl]tetrahydro-2H-pyran-3-amine], the “relative phase stability” value in series [2] was “most stable phase above 13 °C”.
